Consider 8 compounds from patent publication US10961231B2, “NTCP inhibitors” (National Institute of Biological Sciences, Beijing, priority 2018, dated 2021).

The target of the assay is T1, NTCP (Homo sapiens, UniProt Q14973).
T1 sequence (Q14973 1-349): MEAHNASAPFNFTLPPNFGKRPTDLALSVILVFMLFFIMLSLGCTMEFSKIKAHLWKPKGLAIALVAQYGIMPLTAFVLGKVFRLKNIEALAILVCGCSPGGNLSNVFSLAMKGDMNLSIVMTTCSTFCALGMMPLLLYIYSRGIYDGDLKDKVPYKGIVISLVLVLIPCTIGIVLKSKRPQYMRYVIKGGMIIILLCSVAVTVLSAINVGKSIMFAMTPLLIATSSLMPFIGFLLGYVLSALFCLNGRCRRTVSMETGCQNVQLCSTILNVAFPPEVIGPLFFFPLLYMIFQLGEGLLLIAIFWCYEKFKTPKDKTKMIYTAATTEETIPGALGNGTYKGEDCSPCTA
The experiment in a line: [3H]-TCA uptake assay (NTCP inhibition). Format: cell-based. Summed up:
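PTH and HepG2-NTCP cells kept 24 h in PMM to induce NTCP, then exposed 2 h to test compounds or DMSO. Uptake of 1 μM [3H]-taurocholate in Na+ Ringer's buffer (145 mM Na) ran 15 min at 37° C. Cells washed, lysed in 1% Triton X-100, and radioactivity counted by liquid scintillation.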

The mark [1] stands for this setting: given as a range, assay not given.

SMILES strings stand for the structures.

`CCC1NC(=O)C(C2OC(OCc3cccc(S(=O)(=O)NCC(C)C)c3)CC2C)N(C)C(=O)C(C(C)C)N(C)C(=O)C(CC(C)C)N(C)C(=O)C(CC(C)C)N(C)C(=O)C(C)NC(=O)C(C)NC(=O)C(CC(C)C)N(C)C(=O)C(C(C)C)NC(=O)C(CC(C)C)N(C)C(=O)CN(C)C1=O` [Compound 76A, [2-((2R,3R)-5-(3-(N-isobutylsulfamoyl)benzyloxy)-3-methyltetrahydrofuran-2-yl)-2-(methylamino)acetic acid]^1-cyclosporin A] registered an IC50 (IC50, given as a range, assay not given) of 1 to 10 µM.
`CCC1NC(=O)C(C2OC(OC(C)c3cc(Cl)cc(Cl)c3)CC2C)N(C)C(=O)C(C(C)C)N(C)C(=O)C(CC(C)C)N(C)C(=O)C(CC(C)C)N(C)C(=O)C(C)NC(=O)C(C)NC(=O)C(CC(C)C)N(C)C(=O)C(C(C)C)NC(=O)C(CC(C)C)N(C)C(=O)CN(C)C1=O` [Compound 92A, [2-((2R,3R)-5-((S)-1-(3,5-dichlorophenyl)ethoxy)-3-methyltetrahydrofuran-2-yl)-2-(methylamino)acetic acid]^1-cyclosporin A] came in with a half-maximal inhibitory concentration (IC50) under setting [1] of 0.001 to 1 µM.
`CCC1NC(=O)C(C2OC(Sc3cccc(OCc4ccncc4)c3)CC2C)N(C)C(=O)C(C(C)C)N(C)C(=O)C(CC(C)C)N(C)C(=O)C(CC(C)C)N(C)C(=O)C(C)NC(=O)C(C)NC(=O)C(CC(C)C)N(C)C(=O)C(C(C)C)NC(=O)C(CC(C)C)N(C)C(=O)CN(C)C1=O` [Compound 54A, [2-((2,3R)-3-methyl-5-(3-(pyridin-4-ylmethoxy)phenylthio)tetrahydrofuran-2-yl)-2-(methylamino)acetic acid]^1-cyclosporin A] returned a 50% inhibitory concentration (IC50) under setting [1] of 0.001 to 1 µM.
The same measure, in the same setting: with `CCC1NC(=O)C(C2OC(OCc3c(Cl)cccc3Cl)CC2C)N(C)C(=O)C(C(C)C)N(C)C(=O)C(CC(C)C)N(C)C(=O)C(CC(C)C)N(C)C(=O)C(C)NC(=O)C(C)NC(=O)C(CC(C)C)N(C)C(=O)C(C(C)C)NC(=O)C(CC(C)C)N(C)C(=O)CN(C)C1=O` (single isomer, unassigned) [Compound 90B] the figure was 0.001 to 1 µM; with `CCC1NC(=O)C(C2OC(Sc3cccc(OCc4ccn(C)c(=O)c4)c3)CC2C)N(C)C(=O)C(C(C)C)N(C)C(=O)C(CC(C)C)N(C)C(=O)C(CC(C)C)N(C)C(=O)C(C)NC(=O)C(C)NC(=O)C(CC(C)C)N(C)C(=O)C(C(C)C)NC(=O)C(CC(C)C)N(C)C(=O)CN(C)C1=O` [Compound 16A, [2-((2R,3R)-3-methyl-5-(3-((1-methyl-2-oxo-1,2-dihydropyridin-4-yl)methoxy)phenylthio)tetrahydrofuran-2-yl)-2-(methylamino)acetic acid]^1-cyclosporin A], 1 to 10 µM; with `CCC1NC(=O)C(C2OC(OCc3ccccc3Cl)CC2C)N(C)C(=O)C(C(C)C)N(C)C(=O)C(CC(C)C)N(C)C(=O)C(CC(C)C)N(C)C(=O)C(C)NC(=O)C(C)NC(=O)C(CC(C)C)N(C)C(=O)C(C(C)C)NC(=O)C(CC(C)C)N(C)C(=O)CN(C)C1=O` [Compound 84A, [2-((2R,3R)-5-(2-chlorobenzyloxy)-3-methyltetrahydrofuran-2-yl)-2-(methylamino)acetic acid]^1-cyclosporin A], 0.001 to 1 µM.
Take `CCC1NC(=O)C(C2OC(Sc3cc(OCCOC)cc(OCc4cccs4)c3)CC2C)N(C)C(=O)C(C(C)C)N(C)C(=O)C(CC(C)C)N(C)C(=O)C(CC(C)C)N(C)C(=O)C(C)NC(=O)C(C)NC(=O)C(CC(C)C)N(C)C(=O)C(C(C)C)NC(=O)C(CC(C)C)N(C)C(=O)CN(C)C1=O` (centres unmarked) [Compound 56]: the 50% inhibitory concentration (IC50) (given as a range, marked * (asterisk not explained)) lay in the range of 1 to 100 µM.
Take `CCC1NC(=O)C(C2OC(OCc3ccccc3OC)CC2C)N(C)C(=O)C(C(C)C)N(C)C(=O)C(CC(C)C)N(C)C(=O)C(CC(C)C)N(C)C(=O)C(C)NC(=O)C(C)NC(=O)C(CC(C)C)N(C)C(=O)C(C(C)C)NC(=O)C(CC(C)C)N(C)C(=O)CN(C)C1=O` (single isomer, unassigned) [Compound 82B]: under setting [1], the IC50 lay in the range of 0.001 to 1 µM.

For orientation: IC50 means the point on the concentration scale where inhibition reaches its midpoint. Read a low IC50 as greater potency.
